Target: T1, mouse alkaline ceramidase 1 (maCER1) (Mus musculus, UniProt Q8R4X1)
T1 construct: The ORF of the mouse alkaline ceramidase was amplified from the mouse liver cDNA library; made in house; host or cells: Saccharomyces cerevisiae mutant strain Δypc1Δydc1 (microsomes, galactose-induced, pYES2-FLAG-maCER1)
T1 sequence (Q8R4X1 1-273): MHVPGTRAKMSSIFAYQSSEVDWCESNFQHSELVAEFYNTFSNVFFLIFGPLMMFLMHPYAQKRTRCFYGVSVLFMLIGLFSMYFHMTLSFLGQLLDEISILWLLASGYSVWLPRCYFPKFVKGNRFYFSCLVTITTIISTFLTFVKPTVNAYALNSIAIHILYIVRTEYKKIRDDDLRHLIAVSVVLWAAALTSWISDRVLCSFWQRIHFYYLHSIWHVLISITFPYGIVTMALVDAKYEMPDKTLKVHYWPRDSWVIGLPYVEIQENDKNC
Experiment: Ceramidase activity assay with maCER1-containing yeast microsomes (release of NBD-fatty acid from D-e-C12-NBD-ceramide)
Assay type: biochemical
Conditions: FIG. 4C; for effect of sphingoid base on ceramidase activity (in words): same concentration range as sphingosine
Description: The microsomes, as in FIGS. 2A-D were assayed for ceramidase activity using D-e-C12-NBD-ceramide (200 μM) as substrate at different pH in the presence of 0.2% NP-40 and 5 mM Ca^2+ (FIG. 4A), at pH 8.5 in the presence of different cations (FIG. 4B), or different sphingoid bases (FIG. 4C). Results are the mean±SD of three independent experiments performed in duplicate.
maCER1 was expressed in yeast cells as described (Reference 21). Briefly, the expression construct pYES2-FLAG-maCER1 or the empty vector pYES2-FLAG was transformed into the yeast strain Δypc1Δydc1. Expression of the FLAG-tagged maCER1 was induced by 2% galactose.
Ceramidase activity was determined by the release of NBD-fatty acid from fluorescent substrates, NBD-C12-ceramide, dihydroceramide, or phytoceramide as described (Reference 21). Briefly, 20 μl of microsomes (containing 10-20 μg proteins) in buffer B (25 mM Tris-HCl, pH 8.0, 5 mM CaCl2) was mixed with 20 μl of 200 μM NBD-ceramide in buffer B with 0.4% NP-40 in a 1.5 ml microfuge tube. After incubation at 37° C. for 30-60 min, the reactions were stopped by boiling for 5 min, and dried under a SpeedVec. The released NBD-fatty acid was separated from NBD-ceramide by TLC in a solvent of chloroform:methanol: ammonium hydroxide (90:30:0.5) and quantified by PhosphorImager set at the fluorescent mode. To determine the pH optimum of maCER1, the maCER1 microsomes were resuspended in buffer C (1 mM Tris-HCl, pH 7.4, containing 5 mM CaCl2). To determine a cation effect, the maCER1 microsomes were resuspended in buffer A without CaCl2.

| SMILES | effect of sphingoid base on ceramidase activity (in words) | IC50 (maCER1 microsomes, substrate D-e-C12-NBD-ceramide (200 μM), read-out: IC50 for the inhibition of ceramidase activity) [µM] |
| --- | --- | --- |
| CCCCCCCCCCCCCCC[C@@H](O)[C@@H](N)CO [dihydrosphingosine, D-erythro-dihydrosphingosine] | neither phytosphingosine nor dihydrosphingosine in the same concentration range were inhibitory | – |
| CCCCCCCCCCCCCC[C@@H](O)[C@@H](O)[C@@H](N)CO [phytosphingosine, D-ribo-phytosphingosine] | neither phytosphingosine nor dihydrosphingosine in the same concentration range were inhibitory | – |
| CCCCCCCCCCCCC/C=C/[C@@H](O)[C@@H](N)CO [sphingosine, D-erythro-sphingosine] | – | ~80 |
